Measured values published in PubChem BioAssay AID1963849 (Molecular Pharmacology Branch, DTP, NCI, 2024).

Test system: 299254-011-R-J1-PDC complex spheroid viability
Test: Anticancer human tumor 299254-011-R-J1-PDC patient-derived melanoma cell line growth inhibition [POLQ]
Conditions: for IC50: curve of first compound; for viability, T/C: stronger effect = lower value
In short: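 Growth inhibition in 3D: complex spheroids (tumor PDC, HUVEC, MSC) treated with POLQ inhibitor combinations; where Cmax unknown, highest tested concentration 10 microM, except SN-38 at 1 microM.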

[1] = second compound 0.0316 µM, first compound 0.0316 µM
[2] = second compound 0.0316 µM, first compound 0.1 µM
[3] = second compound 0.0316 µM, first compound 0.316 µM
[4] = second compound 0.0316 µM, first compound 1 µM
[5] = second compound 0.0316 µM, first compound 3.16 µM
[6] = second compound 0.0316 µM, first compound 10 µM
[7] = second compound 0.1 µM, first compound 0.0316 µM
[8] = second compound 0.1 µM, first compound 0.1 µM
[9] = second compound 0.1 µM, first compound 0.316 µM
[10] = second compound 0.1 µM, first compound 1 µM
[11] = second compound 0.1 µM, first compound 3.16 µM
[12] = second compound 0.1 µM, first compound 10 µM
[13] = second compound 0.316 µM, first compound 0.0316 µM
[14] = second compound 0.316 µM, first compound 0.1 µM
[15] = second compound 0.316 µM, first compound 0.316 µM
[16] = second compound 0.316 µM, first compound 1 µM
[17] = second compound 0.316 µM, first compound 3.16 µM
[18] = second compound 0.316 µM, first compound 10 µM
[19] = second compound 1 µM, first compound 0.0316 µM
[20] = second compound 1 µM, first compound 0.1 µM
[21] = second compound 1 µM, first compound 0.316 µM
[22] = second compound 1 µM, first compound 1 µM
[23] = second compound 1 µM, first compound 3.16 µM
[24] = second compound 1 µM, first compound 10 µM
[25] = second compound 3.16 µM, first compound 0.0316 µM
[26] = second compound 3.16 µM, first compound 0.1 µM
[27] = second compound 3.16 µM, first compound 0.316 µM
[28] = second compound 3.16 µM, first compound 1 µM
[29] = second compound 3.16 µM, first compound 3.16 µM
[30] = second compound 3.16 µM, first compound 10 µM
[31] = second compound 10 µM, first compound 0.0316 µM
[32] = second compound 10 µM, first compound 0.1 µM
[33] = second compound 10 µM, first compound 0.316 µM
[34] = second compound 10 µM, first compound 1 µM
[35] = second compound 10 µM, first compound 3.16 µM
[36] = second compound 10 µM, first compound 10 µM
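Further: spheroids exposed to drugs for one week before measurement.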
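Wherever viability, T/C is given: percent viability relative to DMSO vehicle control taken as 100%.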

C#Cc1c(F)ccc2cc(O)cc(-c3ncc4c(N5CC6CCC(C5)N6)nc(OCC56CCCN5CC(F)C6)nc4c3F)c12 (stereo unspecified) + Cc1cccc(N(C)C(=O)C2C(O)CCN2c2nc(C)cc(C(F)(F)F)c2C#N)c1
IC50 (second compound 0.0316 µM): > 10 µM
IC50 (second compound 0.1 µM): > 10 µM
IC50 (second compound 0.316 µM): > 10 µM
IC50 (second compound 1 µM): > 10 µM
IC50 (second compound 3.16 µM): > 10 µM
IC50 (second compound 10 µM): > 10 µM
viability, T/C [1]: 113%
viability, T/C [2]: 102%
viability, T/C [3]: 123%
viability, T/C [4]: 120%
viability, T/C [5]: 124%
viability, T/C [6]: 93.9%
viability, T/C [7]: 105%
viability, T/C [8]: 122%
viability, T/C [9]: 120%
viability, T/C [10]: 125%
viability, T/C [11]: 97.8%
viability, T/C [12]: 85.5%
viability, T/C [13]: 105%
viability, T/C [14]: 108%
viability, T/C [15]: 124%
viability, T/C [16]: 99.2%
viability, T/C [17]: 114%
viability, T/C [18]: 75.5%
viability, T/C [19]: 123%
viability, T/C [20]: 109%
viability, T/C [21]: 113%
viability, T/C [22]: 113%
viability, T/C [23]: 103%
viability, T/C [24]: 74.6%
viability, T/C [25]: 114%
viability, T/C [26]: 99.9%
viability, T/C [27]: 118%
viability, T/C [28]: 111%
viability, T/C [29]: 92%
viability, T/C [30]: 78.1%
viability, T/C [31]: 110%
viability, T/C [32]: 108%
viability, T/C [33]: 108%
viability, T/C [34]: 105%
viability, T/C [35]: 80.1%
viability, T/C [36]: 64.2%

C=CC(=O)N1CCN(c2nc(=O)n(-c3c(C)ccnc3C(C)C)c3nc(-c4c(O)cccc4F)c(F)cc23)C(C)C1 (stereo unspecified) + Cc1cccc(N(C)C(=O)C2C(O)CCN2c2nc(C)cc(C(F)(F)F)c2C#N)c1
IC50 (second compound 0.0316 µM): > 10 µM
IC50 (second compound 0.1 µM): > 10 µM
IC50 (second compound 0.316 µM): > 10 µM
IC50 (second compound 1 µM): > 10 µM
IC50 (second compound 3.16 µM): > 10 µM
IC50 (second compound 10 µM): > 10 µM
viability, T/C [1]: 88.6%
viability, T/C [2]: 75.1%
viability, T/C [3]: 72.8%
viability, T/C [4]: 67.8%
viability, T/C [5]: 63.4%
viability, T/C [6]: 68.9%
viability, T/C [7]: 85.2%
viability, T/C [8]: 78.1%
viability, T/C [9]: 64%
viability, T/C [10]: 79.3%
viability, T/C [11]: 69.3%
viability, T/C [12]: 58.7%
viability, T/C [13]: 99.5%
viability, T/C [14]: 81.8%
viability, T/C [15]: 88.3%
viability, T/C [16]: 77.2%
viability, T/C [17]: 74.3%
viability, T/C [18]: 64.4%
viability, T/C [19]: 88.4%
viability, T/C [20]: 73.8%
viability, T/C [21]: 63.5%
viability, T/C [22]: 64.5%
viability, T/C [23]: 82.2%
viability, T/C [24]: 67.9%
viability, T/C [25]: 84%
viability, T/C [26]: 84.8%
viability, T/C [27]: 66.4%
viability, T/C [28]: 70.1%
viability, T/C [29]: 66.1%
viability, T/C [30]: 72.8%
viability, T/C [31]: 90.5%
viability, T/C [32]: 72.7%
viability, T/C [33]: 56.4%
viability, T/C [34]: 74%
viability, T/C [35]: 74.9%
viability, T/C [36]: 75.2%

CC1COCCN1c1cc(C2(O)CC3CCC(C2)O3)c2cnn(-c3ccn[nH]3)c2n1 (stereo unspecified) + Cc1cccc(N(C)C(=O)C2C(O)CCN2c2nc(C)cc(C(F)(F)F)c2C#N)c1
IC50 (second compound 0.0316 µM): 0.182 µM
IC50 (second compound 0.1 µM): 0.224 µM
IC50 (second compound 0.316 µM): 0.234 µM
IC50 (second compound 1 µM): 0.153 µM
IC50 (second compound 3.16 µM): 0.169 µM
IC50 (second compound 10 µM): 0.0815 µM
viability, T/C [1]: 76.1%
viability, T/C [2]: 65.7%
viability, T/C [3]: 35.2%
viability, T/C [4]: 21.1%
viability, T/C [5]: 17.5%
viability, T/C [6]: 10.6%
viability, T/C [7]: 93.9%
viability, T/C [8]: 69.5%
viability, T/C [9]: 39.1%
viability, T/C [10]: 27.4%
viability, T/C [11]: 17.4%
viability, T/C [12]: 9.48%
viability, T/C [13]: 81.4%
viability, T/C [14]: 64.7%
viability, T/C [15]: 46.5%
viability, T/C [16]: 22.8%
viability, T/C [17]: 18.6%
viability, T/C [18]: 7.95%
viability, T/C [19]: 99.5%
viability, T/C [20]: 56.8%
viability, T/C [21]: 36%
viability, T/C [22]: 24.1%
viability, T/C [23]: 15.5%
viability, T/C [24]: 10.2%
viability, T/C [25]: 97.1%
viability, T/C [26]: 61.8%
viability, T/C [27]: 35.5%
viability, T/C [28]: 22.1%
viability, T/C [29]: 14.2%
viability, T/C [30]: 10.6%
viability, T/C [31]: 73.5%
viability, T/C [32]: 44.5%
viability, T/C [33]: 27.2%
viability, T/C [34]: 20.2%
viability, T/C [35]: 14.2%
viability, T/C [36]: 9.04%
